Patent publication US12433952B2, “Antibody-drug conjugates targeting folate receptor alpha and methods of use” (ZYMEWORKS BC INC., priority 2022, dated 2025)
Where two headings read alike, the source gives them in different places.

Key:
Test in all cases: In vitro cytotoxicity of camptothecin analogues (CellTiter-Glo)
Type in all cases: cell-based
[1] = tested on: MDA-MB-468 (breast cancer); details: Homo sapiens, MDA-MB-468, 96 h, read-out: pIC50 MDA-MB-468 (converted)
Procedure: (§1) Cytotoxicity of the camptothecin analogues was assessed in vitro as follows.
(§2) In vitro potency was assessed on multiple cancer cell lines: SK-BR-3 (breast cancer), SKOV-3 (ovarian cancer), Calu-3 (lung cancer), ZR-75-1 (breast cancer) and MDA-MB-468 (breast cancer). Serial dilutions of camptothecin analogues were prepared in RPMI 1640+10% FBS, and 20 μL of each dilution was added to 384-well plates. Cells cultured in log-phase growth were detached by brief incubation in 0.05% Trypsin and resuspended in respective culturing media at 20,000 cells/mL (with the exception of ZR-75 cells, which were resuspended at 10,000 cells/mL). 50 μL of cell suspension was then added to the plates containing test articles. Cells were incubated with test articles for 4 d at 37° C. (with the exception of ZR-75 cells, which were incubated for 5 d). Growth inhibition was assessed by CellTiter-Glo® (Promega Corporation, Madison, WI) and luminescence was measured on a plate reader. IC50 values were determined by GraphPad Prism (GraphPad Software, San Diego CA).

ZR-75-1 (breast cancer) = details: Homo sapiens, ZR-75-1, 120 h, read-out: pIC50 ZR-75 (converted)
Procedure: as §1, §2

Calu-3 (lung cancer) = details: Homo sapiens, Calu-3, 96 h, read-out: pIC50 Calu-3 (converted)
Procedure: as §1, §2

SKOV-3 (ovarian cancer) = details: Homo sapiens, SK-OV-3, 96 h, read-out: pIC50 SKOV-3 (converted)
Procedure: as §1, §2

SK-BR-3 (breast cancer) = details: Homo sapiens, SK-BR-3, 96 h, read-out: pIC50 SKBR-3 (converted)
Procedure: as §1, §2

SMILES | IC50 ([1]; 4 d incubation) | IC50 (ZR-75-1 (breast cancer); 5 d incubation) | IC50 (Calu-3 (lung cancer); 4 d incubation) | IC50 (SKOV-3 (ovarian cancer); 4 d incubation) | IC50 (SK-BR-3 (breast cancer); 4 d incubation) | IC50 [1] | IC50 (ZR-75-1 (breast cancer)) | IC50 (Calu-3 (lung cancer)) | IC50 (SKOV-3 (ovarian cancer)) | IC50 (SK-BR-3 (breast cancer))
CC[C@@]1(O)C(=O)OCc2c1cc1n(c2=O)Cc2c-1nc1cc(F)c(C)cc1c2CN1CCN(C)CC1 [Compound 106, (S)-4-ethyl-8-fluoro-4-hydroxy-9-methyl-11-((4-methylpiperazin-1-yl)methyl)-1,12-dihydro-14H-pyrano[3′,4′:6,7]indolizino[1,2-b]quinoline-3,14(4H)-dione] | 9.33 nM | 3.8 nM | 4.57 nM | 7.41 nM | 3.39 nM |  |  |  |  | 
CC[C@@]1(O)C(=O)OCc2c1cc1n(c2=O)Cc2c-1nc1cc(F)c(OC)cc1c2CNS(=O)(=O)c1ccccc1 [Compound 126, (S)—N-((4-ethyl-8-fluoro-4-hydroxy-9-methoxy-3,14-dioxo-3,4,12,14-tetrahydro-1H-pyrano[3′,4′:6,7]indolizino[1,2-b]quinolin-11-yl)methyl)benzenesulfonamide] | 1.95 nM | 0.724 nM | 2.95 nM | 6.31 nM | 1.1 nM |  |  |  |  | 
CC[C@@]1(O)C(=O)OCc2c1cc1n(c2=O)Cc2c-1nc1cc(F)c(N)cc1c2CNC(=O)NCCO [Compound 151, (S)-1-((9-amino-4-ethyl-8-fluoro-4-hydroxy-3,14-dioxo-3,4,12,14-tetrahydro-1H-pyrano[3′,4′:6,7]indolizino[1,2-b]quinolin-11-yl)methyl)-3-(2-hydroxyethyl)urea] | 11.5 nM | 5.89 nM | 11.5 nM | 45.7 nM | 2.69 nM |  |  |  |  | 
CC[C@@]1(O)C(=O)OCc2c1cc1n(c2=O)Cc2c-1nc1cc(F)c(OC)cc1c2CNS(C)(=O)=O [Compound 123, (S)—N-((4-ethyl-8-fluoro-4-hydroxy-9-methoxy-3,14-dioxo-3,4,12,14-tetrahydro-1H-pyrano[3′,4′:6,7]indolizino[1,2-b]quinolin-11-yl)methyl)methanesulfonamide] | 2 nM | 2.45 nM | 3.72 nM | 19.5 nM | 1.91 nM |  |  |  |  | 
CC[C@@]1(O)C(=O)OCc2c1cc1n(c2=O)Cc2c-1nc1cc(F)c(C)cc1c2CN1CCO[C@@H](CO)C1 [Compound 113, (S)-4-ethyl-8-fluoro-4-hydroxy-11-(((R)-2-(hydroxymethyl)morpholino)methyl)-9-methyl-1,12-dihydro-14H-pyrano[3′,4′:6,7]indolizino[1,2-b]quinoline-3,14(4H)-dione] |  |  |  |  |  | 3.39 nM | 2.19 nM | 3.02 nM | 4.27 nM | 1.95 nM
CC[C@@]1(O)C(=O)OCc2c1cc1n(c2=O)Cc2c-1nc1cc(F)c(C)cc1c2CN1CCCCC1 [Compound 110, (S)-4-ethyl-8-fluoro-4-hydroxy-9-methyl-11-(piperidin-1-ylmethyl)-1,12-dihydro-14H-pyrano[3′,4′:6,7]indolizino[1,2-b]quinoline-3,14(4H)-dione] | 1.55 nM | 0.851 nM | 0.813 nM | 0.933 nM | 1.32 nM |  |  |  |  | 
CC[C@@]1(O)C(=O)OCc2c1cc1n(c2=O)Cc2c-1nc1cc(F)c(C)cc1c2CNC(=O)NCc1ccc(N)cc1 [Compound 134, (S)-1-(4-aminobenzyl)-3-((4-ethyl-8-fluoro-4-hydroxy-9-methyl-3,14-dioxo-3,4,12,14-tetrahydro-1H-pyrano[3′,4′:6,7]indolizino[1,2-b]quinolin-11-yl)methyl)urea] | 11.5 nM | 12 nM | 24.5 nM | 77.6 nM | 9.55 nM |  |  |  |  | 
CC[C@@]1(O)C(=O)OCc2c1cc1n(c2=O)Cc2c-1nc1cc(F)c(C)cc1c2CNC(=O)OC [Compound 138, Methyl-(S)-((4-ethyl-8-fluoro-4-hydroxy-9-methyl-3,14-dioxo-3,4,12,14-tetrahydro-1H-pyrano[3′,4′:6,7]indolizino[1,2-b]quinolin-11-yl)methyl)carbamate] | 0.871 nM | 0.195 nM | 0.389 nM | 0.617 nM | 0.479 nM |  |  |  |  | 
CC[C@@]1(O)C(=O)OCc2c1cc1n(c2=O)Cc2c-1nc1cc(F)c(C)cc1c2CNS(C)(=O)=O [Compound 122, (S)—N-((4-ethyl-8-fluoro-4-hydroxy-9-methyl-3,14-dioxo-3,4,12,14-tetrahydro-1H-pyrano[3′,4′:6,7]indolizino[1,2-b]quinolin-11-yl)methyl)methanesulfonamide] |  |  |  |  |  | 1.1 nM | 1.29 nM | 3.72 nM | 9.12 nM | 1.12 nM
CC[C@@]1(O)C(=O)OCc2c1cc1n(c2=O)Cc2c-1nc1cc(F)c(C)cc1c2CN1CCN(c2ccc(N)cc2)CC1 [Compound 108, (S)-11-((4-(4-aminophenyl)piperazin-1-yl)methyl)-4-ethyl-8-fluoro-4-hydroxy-9-methyl-1,12-dihydro-14H-pyrano[3′,4′:6,7]indolizino[1,2-b]quinoline-3,14(4H)-dione] |  |  |  |  |  | 47.9 nM | 18.6 nM | 40.7 nM | 55 nM | 29.5 nM
CC[C@@]1(O)C(=O)OCc2c1cc1n(c2=O)Cc2cc3cc(N)c(F)cc3nc2-1 [Compound 140, (S)-9-amino-4-ethyl-8-fluoro-4-hydroxy-1,12-dihydro-14H-pyrano[3′,4′:6,7]indolizino [1,2-b]quinoline-3,14(4H)-dione] | 0.708 nM | 0.331 nM | 0.309 nM | 0.457 nM | 0.316 nM |  |  |  |  | 
CC[C@@]1(O)C(=O)OCc2c1cc1n(c2=O)Cc2c-1nc1cc(F)c(C)cc1c2CN1CCN(S(=O)(=O)c2ccc(N)cc2)CC1 [Compound 104, (S)-11-((4-((4-aminophenyl)sulfonyl)piperazin-1-yl)methyl)-4-ethyl-8-fluoro-4-hydroxy-9-methyl-1,12-dihydro-14H-pyrano[3′,4′:6,7]indolizino[1,2-b]quinoline-3,14(4H)-dione] | 2.63 nM | 2.57 nM | 5.25 nM | 7.76 nM | 2.69 nM |  |  |  |  | 
CC[C@@]1(O)C(=O)OCc2c1cc1n(c2=O)Cc2c-1nc1cc(F)c(N)cc1c2CN [Compound 145, (S)-9-amino-11-(aminomethyl)-4-ethyl-8-fluoro-4-hydroxy-1,12-dihydro-14H-pyrano[3′,4′:6,7]indolizino[1,2-b]quinoline-3,14(4H)-dione] | 0.269 nM | 0.38 nM | 0.269 nM | 0.933 nM | 0.355 nM |  |  |  |  | 
CC[C@@]1(O)C(=O)OCc2c1cc1n(c2=O)Cc2c-1nc1cc(F)c(OC)cc1c2CN1CCN(c2ccc(N)cc2)CC1 [Compound 109, (S)-11-((4-(4-aminophenyl)piperazin-1-yl)methyl)-4-ethyl-8-fluoro-4-hydroxy-9-methoxy-1,12-dihydro-14H-pyrano[3′,4′:6,7]indolizino[1,2-b]quinoline-3,14(4H)-dione] | 8.13 nM | 5.01 nM |  | 7.08 nM | 5.75 nM |  |  |  |  | 
CC[C@@]1(O)C(=O)OCc2c1cc1n(c2=O)Cc2c-1nc1cc(F)c(OC)cc1c2CNS(=O)(=O)c1ccc(N)cc1 [Compound 128, (S)-4-amino-N-((4-ethyl-8-fluoro-4-hydroxy-9-methoxy-3,14-dioxo-3,4,12,14-tetrahydro-1H-pyrano[3′,4′:6,7]indolizino[1,2-b]quinolin-11-yl)methyl)benzenesulfonamide] |  |  |  |  |  | 8.32 nM | 4.27 nM |  | 18.2 nM | 5.25 nM
CC[C@@]1(O)C(=O)OCc2c1cc1n(c2=O)Cc2c-1nc1cc(F)c(C)cc1c2CN1CCN(S(=O)(=O)c2ccccc2)CC1 [Compound 102, (S)-4-ethyl-8-fluoro-4-hydroxy-9-methyl-11-((4-(phenylsulfonyl)piperazin-1-yl)methyl)-1,12-dihydro-14H-pyrano[3′,4′:6,7]indolizino[1,2-b]quinoline-3,14(4H)-dione] | 2.34 nM | 0.794 nM |  | 2.14 nM | 0.933 nM |  |  |  |  | 
CC[C@@]1(O)C(=O)OCc2c1cc1n(c2=O)Cc2c-1nc1cc(F)c(OC)cc1c2CN1CCOCC1 [Compound 101, (S)-4-ethyl-8-fluoro-4-hydroxy-9-methoxy-11-(morpholinomethyl)-1,12-dihydro-14H-pyrano[3′,4′:6,7]indolizino[1,2-b]quinoline-3,14(4H)-dione] | 2.57 nM | 1.07 nM |  | 1.58 nM | 1.07 nM |  |  |  |  | 
CC[C@@]1(O)C(=O)OCc2c1cc1n(c2=O)Cc2c-1nc1cc(F)c(N)cc1c2CNS(=O)(=O)CCO [Compound 150, (S)—N-((9-amino-4-ethyl-8-fluoro-4-hydroxy-3,14-dioxo-3,4,12,14-tetrahydro-1H-pyrano[3′,4′:6,7]indolizino[1,2-b]quinolin-11-yl)methyl)-2-hydroxyethane-1-sulfonamide] |  | 6.46 nM |  | 63.1 nM | 7.94 nM |  |  |  |  | 
